The values below are quoted from earlier work in patent US6468469B2, “Reuse determination for high level disinfectant” (Metrex Research Corporation, priority 2000, dated 2002).

This series has as its system M. tuberculosis. The settings on record: alone at a concentration of up to 7.5%.

Take `OO` [hydrogen peroxide]: the “kill of M. tuberculosis” value was “does not kill”.
